Test results: patent US20180339016A1 (priority 2015, published 2018)
Values joined by “and” are separate entries in the source; they are usually repeats but may differ in a detail not shown here. Equal entries are not always repeated. Where two headings read alike, the source gives them in different places.

How the values were obtained:
[1] = tested on: Escherichia coli (ATCC 25922); settings: peptide alone; peptide concentration required to inhibit growth by 20% (so in the source)
Procedure: (§1) The N-terminus of the peptides were acetylated and the C-terminus was amidated. The kinked structure can rapidly reduce the alpha-helical content, thereby greatly reducing the toxicity of the peptide against host cells. In addition, because of the potential to show specificity for the Gram-negative bacterial membrane, Pro-mutants were prepared by site-directed mutagenesis. Using the prepared peptides, their MIC for the Gram-negative bacterium E. coli and the Gram-positive bacterium S. aureus and their hemolytic activity for host cells were examined (Table 1).
(§2) To measure the synergy between the membrane-activating peptides and the repositioning drug, a 10× compound was prepared, and then serially diluted ⅔-fold with distilled water. An MH broth (900 μl) was added to and mixed with the 10× compound (100 μl), and then 200 μL of the mixture was taken and added to a 96-well plate. E. coli cultured for one day was adjusted to 0.5 MCF using MCFarland, and diluted 10-fold, and then 10 μl of the dilution was added to each well of the plate (5×10^5 CFU/mL). After addition of the bacterial cells, plate was incubated at 37° C. for 18 hours, and then the OD value at UV-Vis (600 nm) was measured. Cell viability (%)=(OD600 of sample−OD600 of negative control)/(OD600 of positive control−OD600 of negative control)×100.

[2] = tested on: Staphylococcus aureus (ATCC 29213); test: MIC of peptide against S. aureus; type: cell-based; settings: peptide alone
Procedure: as §1

E. coli ATCC 25922 [3] = test: Antibiotic interaction assay (Wimley), 2/3 broth microdilution: MIC alone, MIC of combination, FICI; type: cell-based; settings: for MIC of combination (μM): antibiotic (colistin): colistin concentration in combination with labelled peptide; for MIC of peptide: peptide alone
Procedure: Synergy was evaluated by an antibiotic interaction assay (Wimley, 2015) Using the method of Wimley (BBA, 2015, v. 1848(1), pp. 8-15), synergy between the membrane-activating peptide and an antibiotic was measured by an FICI value (FIG. 17). […] Thus, to accurately examine synergy, a ⅔ dilution method which observes MIC at denser concentration intervals is advantageous over a ½ dilution method in statistical terms. […] In the same manner, the MIC of an antibiotic or repositioning drug (second line) is measured. In the third line, the two compounds are mixed after putting half amount each, and the MIC thereof is measured.
A broth microdilution technique (⅔ dilution) was used together with an MH broth. E. coli treated with an antibiotic and the peptide was incubated in a 37° C. incubator for 18 hours.
as §2

E. coli ATCC 25922 [4] = tested on: E. coli ATCC 25922
[5] = labelled peptide + colistin + linezolid
[6] = three compounds: labelled peptide + colistin + linezolid
[7] = Table 13, Lys-Ala scanning library
[8] = peptide concentration in combination with colistin

LKKPLKLLKKLLKL [LK-L4P]
MIC [μM] Against E. coli [1]: 5 µM | MIC [μM] Against S. aureus [2]: 40 µM

LKKLLKPPKKLLKL [LK-L7PL8P]
MIC [μM] Against E. coli [1]: 40 µM | MIC [μM] Against S. aureus [2]: >40 µM | MIC of combination (μM): antibiotic (colistin) (E. coli ATCC 25922 [3]): 0.09 µM | FICI of peptide with colistin (E. coli ATCC 25922 [3]; labelled peptide + colistin): 0.3 and 0.34 | FICIPeptide (E. coli ATCC 25922 [3]; labelled peptide + colistin): 0.16 | FICIcolistin / FICIantibiotic (E. coli ATCC 25922 [3]; labelled peptide + colistin): 0.18 | FICI of peptide with colistin and linezolid (E. coli ATCC 25922 [3]; [5]): 0.27 | FICIPeptide (E. coli ATCC 25922 [3]; [5]): 0.07 | FICIcolistin (E. coli ATCC 25922 [3]; [5]): 0.09 | FICIlinezolid (E. coli ATCC 25922 [3]; [5]): 0.11 | FICI of peptide with linezolid (E. coli ATCC 25922 [3]; labelled peptide + linezolid): 0.53 | FICIPeptide (E. coli ATCC 25922 [3]; labelled peptide + linezolid): 0.26 | FICIlinezolid (E. coli ATCC 25922 [3]; labelled peptide + linezolid): 0.27 | FICI of peptide with linezolid (E. coli ATCC 25922 [3]; labelled peptide + linezolid, listed as LK-L7P/L8P): about 0.53 | MIC of combination (μM): linezolid (E. coli ATCC 25922 [3]; linezolid concentration in combination with labelled peptide): 22 µM | MIC of peptide (E. coli ATCC 25922 [3]): 53 µM | MIC of combination (μM): peptide (E. coli ATCC 25922 [3]; peptide concentration in combination with linezolid): 14 µM | MIC of combination (μM): colistin (E. coli ATCC 25922 [3]; [6]): 0.040 µM | MIC of combination (μM): linezolid (E. coli ATCC 25922 [3]; [6]): 5.9 µM | MIC of combination (μM): peptide (E. coli ATCC 25922 [3]; [6]): 4.7 µM

LKKLLKLLPKLLKL [LK-K9P]
MIC [μM] Against E. coli [1]: 5.0 µM | MIC [μM] Against S. aureus [2]: 5.0 µM

LKKLPKLPKKLLKL [LK-L5PL8P]
MIC [μM] Against E. coli [1]: 20 µM | MIC [μM] Against S. aureus [2]: >40 µM

KPLKLLKKLLKLLK [KL-L2P]
MIC [μM] Against E. coli [1]: 5 µM | MIC [μM] Against S. aureus [2]: 20 µM

KLLKPLKKLLKLLK [KL-L5P]
MIC [μM] Against E. coli [1]: 5.0 µM | MIC [μM] Against S. aureus [2]: 20 µM

KLAKLLKKPLKLLK [KL-L3AL9P]
MIC [μM] Against E. coli [1]: 27 µM | FICI Against E. coli, Colistin & 1/2 MIC peptide (E. coli ATCC 25922 [4]; Table 15, Leu-Ala scanning): 0.70 | FICI Against E. coli, Colistin & 1/4 MIC peptide (E. coli ATCC 25922 [4]; Table 15, Leu-Ala scanning): 0.55

KLLKLLKKPLKLLA [KL-L9P/K14A]
FICI Against E. coli, Colistin & 1/2 MIC peptide (E. coli ATCC 25922 [4]; [7]): 0.66

LKKLLKLLKKLLKL
MIC [μM] Against E. coli [1]: 20 µM | MIC [μM] Against S. aureus [2]: 20 µM

LKKLLKLLKPLLKL [LK-K10P]
MIC [μM] Against E. coli [1]: 5.0 µM | MIC [μM] Against S. aureus [2]: 5.0 µM

LKKLLKLLKKPPKL [LK-L11PL12P]
MIC [μM] Against E. coli [1]: 2.5 µM | MIC [μM] Against S. aureus [2]: >40 µM

KLLKLLKCLLKCLK [8, 12 kink]
MIC [μM] Against E. coli [1]: 1.1 µM | MIC of combination (μM): antibiotic (colistin) (E. coli ATCC 25922 [3]): 0.065 µM | FICI of peptide with colistin (E. coli ATCC 25922 [3]; labelled peptide + colistin): 0.86 | FICIPeptide (E. coli ATCC 25922 [3]; labelled peptide + colistin): 0.56 | FICIcolistin / FICIantibiotic (E. coli ATCC 25922 [3]; labelled peptide + colistin): 0.30 | FICI of peptide with colistin and linezolid (E. coli ATCC 25922 [3]; [5]): 1.1 | FICIPeptide (E. coli ATCC 25922 [3]; [5]): 0.42 | FICIcolistin (E. coli ATCC 25922 [3]; [5]): 0.29 | FICIlinezolid (E. coli ATCC 25922 [3]; [5]): 0.37 | MIC of peptide (E. coli ATCC 25922 [3]): 1.1 µM | MIC of combination (μM): peptide (E. coli ATCC 25922 [3]; [8]): 0.59 µM | MIC of combination (μM): colistin (E. coli ATCC 25922 [3]; [6]): 0.065 µM | MIC of combination (μM): linezolid (E. coli ATCC 25922 [3]; [6]): 22 µM | MIC of combination (μM): peptide (E. coli ATCC 25922 [3]; [6]): 0.44 µM

LKKPPKLLKKLLKL [LK-L4PL5P]
MIC [μM] Against E. coli [1]: 5 µM | MIC [μM] Against S. aureus [2]: >40 µM

LKKLLPLLKKLLKL [LK-K6P]
MIC [μM] Against E. coli [1]: 2.5 µM | MIC [μM] Against S. aureus [2]: 5.0 µM

KLLKLLKKLLKLPK [KL-L13P]
MIC [μM] Against E. coli [1]: 5 µM | MIC [μM] Against S. aureus [2]: 10 µM

LKKLLKPLKKPLKL [LK-L7PL11P]
MIC [μM] Against E. coli [1]: 20 µM | MIC [μM] Against S. aureus [2]: >40 µM

KLLKLLKAPLKLLK [KL-L9P/K8A]
FICI Against E. coli, Colistin & 1/2 MIC peptide (E. coli ATCC 25922 [4]; [7]): 0.97

KLLKLLKKPLALLK [KL-L9P/K11A]
FICI Against E. coli, Colistin & 1/2 MIC peptide (E. coli ATCC 25922 [4]; [7]): 1.25

KLLKLLKKPLKALK [KL-L9PL12A]
MIC [μM] Against E. coli [1]: 40 µM | FICI Against E. coli, Colistin & 1/2 MIC peptide (E. coli ATCC 25922 [4]; Table 15, Leu-Ala scanning): 0.74 | FICI Against E. coli, Colistin & 1/4 MIC peptide (E. coli ATCC 25922 [4]; Table 15, Leu-Ala scanning): 0.61

KLLKLLKKDLKLLK [KL L9D]
MIC [μM] Against E. coli [1]: 20 µM | MIC of combination (μM): antibiotic (colistin) (E. coli ATCC 25922 [3]): 0.09 µM | FICI of peptide with colistin (E. coli ATCC 25922 [3]; labelled peptide + colistin): 0.46 | FICIPeptide (E. coli ATCC 25922 [3]; labelled peptide + colistin): 0.28 | FICIcolistin / FICIantibiotic (E. coli ATCC 25922 [3]; labelled peptide + colistin): 0.18 | FICI of peptide with simvastatin (E. coli ATCC 25922 [3]; labelled peptide + simvastatin): 0.61 | FICIPeptide (E. coli ATCC 25922 [3]; labelled peptide + simvastatin): 0.5 | FICIsimvastatin (E. coli ATCC 25922 [3]; labelled peptide + simvastatin): 0.11 | MIC of peptide (E. coli ATCC 25922 [3]): 18 µM | MIC of combination (μM): peptide (E. coli ATCC 25922 [3]; [8]): 5 µM | MIC of combination (μM): peptide (E. coli ATCC 25922 [3]; peptide concentration in combination with simvastatin): 9 µM | MIC of combination (μM): simvastatin (E. coli ATCC 25922 [3]; simvastatin concentration in combination with labelled peptide): 83.33 µM

KLLKLLKKLLKPLK [KL-L12P]
MIC [μM] Against E. coli [1]: 2.5 µM | MIC [μM] Against S. aureus [2]: 20 µM
